Series [1] can be described thus: Ex vivo brain imaging of peptide fragments after ip injection, wild-type mice. The series is classed as in vivo, mouse. The procedure: For ex vivo imaging experiments and peptide brain uptake, age matched 6-month-old wild-type littermate (C57BL/6 background) mice were used. […] After 2 hours the mice were then sacrificed to collect their brains, and imaged using the Kodak imager as described above, but with an exposure time of 3 min per image for NIRF image.
For ex vivo histological studies, brains were excised, embedded in OCT, then sliced into 20-μm slices, co-stained with DAPI in mounting medium.
Mice were injected with a single dose and then sacrificed, and the brains were extracted after 2 hours from injection. Fluorescence in brains was quantified as previously described.

Series [2] relates to TgCRND8 and wild-type mice. Description: Daily monitoring for treatment-related toxicity during chronic icv infusion. The series is classed as in vivo, mouse. The conditions noted are these: chronic icv infusion 5-6 months. The procedure: A microcannula was stereotaxically inserted into the right cerebral ventricle (0.12 right lateral and 0.06 posterior to bregma, 3 mm deep) of isofluorane-anesthetized mice, and connected to an osmotic pump (Alzet; model 2004) implanted subcutaneously on the back of the mouse. The pump infused a solution of either aCSF or AC253 in aCSF into the ventricle at a rate of […] to yield an estimated concentration of 1 μM AC253 in the mouse CSF at equilibrium based upon the known CSF dynamics in the mouse brain (Di Pardo et al., 2012). The pump reservoir was replaced every 28 days for a total of 5-6 months. Animals were monitored on a daily basis for signs of treatment-related toxicity, such as poor grooming, lethargy, loss of bodyweight, and abnormal behavior. After completion of medication and behavioral tests, all mice were killed with an overdose of isoflourane anesthetic, perfused transcardially with saline, and the brains were harvested. The left hemisphere per animal was frozen for biochemical analysis (Western blot, ELISA), and the right hemisphere retained for histological analysis.

The next series relates to TgCRND8 AD mouse model. Description: T-maze alternation, chronic icv infusion of AC253. The series is classed as in vivo. The settings on record: TgCRND8 mice receiving icv AC253 vs other groups. As for the experimental part:
Age-matched, wild-type littermate (C57BL/6 background) male or female mice were used. […] Heterozygous CTR (het CTR) mice (C57BL/6J background) with a 50% deletion of CTR were obtained from Drs. R. A. Davey and J. D. Zajac (Department of Medicine, Austin Health, University of Melbourne, Heidelberg, Victoria, Australia). Mice were housed individually under standard laboratory conditions (12/12-h light/dark cycle, lights on at 0600 h) with a room temperature of 21° C. Water and food were available ad libitum unless otherwise indicated. All tests were performed during the light phase between 0900 and 1600 h in accordance with institutional guidelines. The mice were 3 months old at the onset of testing.
A microcannula was stereotaxically inserted into the right cerebral ventricle (0.12 right lateral and 0.06 posterior to bregma, 3 mm deep) of isofluorane-anesthetized mice, and connected to an osmotic pump (Alzet; model 2004) implanted subcutaneously on the back of the mouse. The pump infused a solution of either aCSF or AC253 in aCSF into the ventricle at a rate of […] to yield an estimated concentration of 1 μM AC253 in the mouse CSF at equilibrium based upon the known CSF dynamics in the mouse brain (Di Pardo et al., 2012). […] Animals were monitored on a daily basis for signs of treatment-related toxicity, such as poor grooming, lethargy, loss of bodyweight, and abnormal behavior. […]

In the next series the target is T1, AMY3 receptor (Homo sapiens, UniProt O60896+P30988).
T1 construct: expressed in transfected cells; AMY3-293 / AMY3-HEK)
T1 sequence (P30988 25-474): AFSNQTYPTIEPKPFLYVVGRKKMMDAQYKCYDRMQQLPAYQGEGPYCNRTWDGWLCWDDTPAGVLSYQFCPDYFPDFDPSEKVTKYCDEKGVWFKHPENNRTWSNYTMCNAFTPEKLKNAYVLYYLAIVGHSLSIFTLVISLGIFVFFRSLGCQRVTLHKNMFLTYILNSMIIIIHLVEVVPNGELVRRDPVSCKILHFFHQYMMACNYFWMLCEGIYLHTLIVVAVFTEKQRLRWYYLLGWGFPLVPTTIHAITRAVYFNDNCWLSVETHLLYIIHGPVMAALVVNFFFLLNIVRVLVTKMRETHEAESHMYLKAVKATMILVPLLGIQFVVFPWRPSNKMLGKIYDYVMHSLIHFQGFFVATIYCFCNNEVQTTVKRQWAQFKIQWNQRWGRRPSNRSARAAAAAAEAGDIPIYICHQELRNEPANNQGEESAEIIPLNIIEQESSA
T1 sequence (O60896 24-148 partner): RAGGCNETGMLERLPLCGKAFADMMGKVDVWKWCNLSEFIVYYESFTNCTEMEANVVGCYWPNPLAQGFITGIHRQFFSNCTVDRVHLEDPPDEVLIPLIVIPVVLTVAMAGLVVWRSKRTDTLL
As to the kind of experiment: Inhibition of hAmylin-evoked cAMP in AMY3-expressing HEK293 cells. The series is classed as cell-based. The settings on record: AMY3-HEK cells. The procedure:
a) To investigate peptides amylin receptor affinity, GFP-positive HEK293 cells that stably expressed AMY3 receptor (AMY3-293) as previously reported (Fu et al., 2012) were used. For control, GFP-positive HEK293 wild type cells were used. HEK293 cells were cultured in DMEM (Invitrogen) with 10% FBS (Invitrogen) and grown at 37° C., 5% C02. For cAMP measurements, AMY3-293 cells were plated on 24-well plates overnight. Cells were stimulated for 30 minutes with hAmylin over a concentration range (1 pM-10 μM). Cellular cAMP levels were measured using a parameter cyclic AMP assay kit (R&D Systems) according to the manufacturer's instructions. For in-cell Western blot cAMP quantification, mouse monoclonal anti-cAMP (R&D Systems) was used as a primary antibody, and IRDye 800 goat anti mouse antibody (LI-COR) was used as a secondary antibody. Plates were imaged using an Odyssey Infrared Imaging System (LI-COR), and the integrated intensity was normalized to the total cell number on the same well. Data was plotted, and non-linear regression was fitted with four parameters using Prism software (GraphPad Software, La Jolla, Calif.).
e) For cAMP measurements, AMY3-293 cells were plated on 24-well plates overnight. […] Cellular cAMP levels were measured using a parameter cyclic AMP assay kit (R&D Systems) according to the manufacturer's instructions. […]

Residues, ends and D or L forms follow the SMILES beside them.

On to `CC(C)C[C@H](NC(=O)[C@H](CCC(=O)O)NC(=O)[C@H](CCC(N)=O)NC(=O)[C@@H](N)CO)C(=O)N[C@@H](Cc1c[nH]cn1)C(=O)N[C@@H](CCCNC(=N)N)C(=O)N[C@@H](CC(C)C)C(=O)N[C@@H](CCC(N)=O)C(=O)N[C@H](C(=O)N[C@@H](Cc1ccc(O)cc1)C(=O)N1CCC[C@H]1C(=O)N[C@@H](CCCNC(=N)N)C(N)=O)[C@@H](C)O` [R5] (H-SQELHRLQTYPR-NH2; N-terminus assumed), for which the “brain permeability, imaging of the intact brain” value in series [1] (0.1 mmol ip, 2 hr post-injection, tested alongside Davlintide) is “marked brain permeability”. Also, the “brain permeability compared to AC253” value in series [1] (2 hr post-ip injection, wild-type mice) was “marked increase in brain permeability”.

For `CC(C)C[C@H](NC(=O)[C@H](CCCNC(=N)N)NC(=O)CNC(=O)[C@@H](N)CC(C)C)C(=O)N[C@@H](CO)C(=O)N[C@@H](CCC(N)=O)C(=O)N[C@@H](CCC(=O)O)C(=O)N[C@@H](CC(C)C)C(=O)N[C@@H](Cc1c[nH]cn1)C(=O)N[C@@H](CCCNC(=N)N)C(=O)N[C@@H](CC(C)C)C(=O)N[C@@H](CCC(N)=O)C(=O)N[C@H](C(=O)N[C@@H](Cc1ccc(O)cc1)C(=O)N1CCC[C@H]1C(=O)N[C@@H](CCCNC(=N)N)C(=O)N[C@H](C(=O)N[C@@H](CC(N)=O)C(=O)N[C@H](C(=O)NCC(=O)N[C@@H](CO)C(=O)N[C@@H](CC(N)=O)C(=O)N[C@H](C(=O)N[C@@H](Cc1ccc(O)cc1)C(N)=O)[C@@H](C)O)[C@@H](C)O)[C@@H](C)O)[C@@H](C)O` [AC253], the “signs of off-target effects or changes in body weight” value in series [2] is given as “none of the mice receiving AC253 showed any signs of off-target effects”. For the same compound, the “T-maze, identification of the food arm” value in the series with TgCRND8 AD mouse model is “correctly identified the food arm of the maze”. For the same compound, the “block of hAmylin evoked cAMP increase” value at AMY3 receptor is “blocked the hAmylin evoked cAMP increase in a dose-dependent manner”.

Values taken from patent US10766940B2, “Brain penetrant amylin receptor based peptides for Alzheimer's disease” (The Governors of the University of Alberta, priority 2016, dated 2020).
